The subject of one assay is HOP-62. Briefly: ACTREC in vitro cytotoxicity, HOP-62. The assay is classed as cell-based. On the procedure: (§1) In vitro biological activity studies were carried out at the Advance Center for Treatment Research & Education in Cancer.
In a further assay the test system is KB. In words: ACTREC in vitro cytotoxicity, KB. The assay is classed as cell-based. On the procedure:
as §1

The test system of the next assay is GURAV. Briefly: ACTREC in vitro cytotoxicity, GURAV. The assay is classed as cell-based. The procedure:
as §1

The test system of the next assay is A-2780. In words: ACTREC in vitro cytotoxicity, A-2780. In kind it is cell-based. Particulars: Ovary A-2780 (Table 4). The procedure:
as §1

Another assay has as its system Si-Ha. Briefly: ACTREC in vitro cytotoxicity, Si-Ha. In kind it is cell-based. The procedure:
as §1

The test system of another assay is Colo-205. In words: ACTREC in vitro cytotoxicity, Colo-205. The assay is classed as cell-based. The procedure:
as §1

In the next assay the test system is Zr-75-1. In words: ACTREC in vitro cytotoxicity, Zr-75-1. In kind it is cell-based. The procedure: as §1
A further assay has as its system MCF7. In words: ACTREC in vitro cytotoxicity, MCF7. The assay is classed as cell-based. The procedure:
as §1

Assay [1] concerns duplex-form calf thymus DNA (CT-DNA). Briefly: Thermal denaturation studies (DNA binding). Particulars: [PBD]:[DNA] molar ratio 1:5, CT-DNA 100 μM, ligand 20 μM; for ΔTm after incubation at 37 °C for 0 h: pH 7.00, 0 h; for ΔTm after incubation at 37 °C for 18 h: pH 7.00, 18 h. On the procedure: Compounds have been subjected to thermal denaturation studies with duplex-form calf thymus DNA (CT-DNA) using a modification of a reported procedure. Working solutions in aqueous buffer ([…] NaH2PO4/Na2HPO4, 1 mM Na2EDTA, pH 7.00±0.01) containing CT-DNA (100 μM in phosphate) and the PBD (20 μM) have been prepared by addition of concentrated PBD solutions in DMSO to obtain a fixed [PBD]/[DNA] molar ratio of 1:5. The DNA-PBD solutions have been incubated at 37° C. for 0 and 18 hrs prior to analysis. Samples have been monitored at 260 nm using a Beckman DU-800 spectrophotometer fitted with high performance temperature controller, and heated at 1° C. min^−1 in the 40-110° C. range. DNA helix→coil transition temperatures (Tm) have been obtained from the maxima in the d(A260)/dT derivative plots. Drug-induced alterations in DNA melting behavior are given by: […]Tm=Tm(DNA+PBD)-Tm(DNA alone), where the Tm value for the PBD-free CT-DNA is 68.5 […]0.01.
The DNA-binding for these C8-linked carbazole-PBD hybrids has been examined by thermal denaturation studies using calf thymus (CT) DNA. […] Data for 6a, 6b, 6c, 14a, 14b, and 14d and DC-81 are included in Table 5 for comparison.

For a further assay, the system named is A-549. Briefly: ACTREC in vitro cytotoxicity, A-549. In kind it is cell-based. Particulars: Lung A-549 (Table 4). The procedure: as §1
The subject of another assay is PC-3. In words: ACTREC in vitro cytotoxicity, PC-3. In kind it is cell-based. On the procedure:
as §1

Usually GI50 stands for the concentration that inhibits growth by half. Regarding `COc1cc2c(cc1OCCCCCCn1c3ccccc3c3ccccc31)N=C[C@@H]1CCCN1C2=O` [Compound 6d, 7-Methoxy-8-[6-(9H-9-carbazoly)hexyloxy]-(11aS)-1,2,3,11a-tetrahydro-5H-pyrrolo[2,1-c][1,4]-benzodiazepin-5-one], the GI50 with HOP-62 (Lung HOP-62 (Table 4)) was 1580 nM; in the assay with HOP-62 (non small cell lung (HOPO62)), 1580 nM; with KB (Oral KB (Table 4)), 1950 nM; in the assay on GURAV (Oral GURAV (Table 4)), 1710 nM; in the assay on A-2780, 1700 nM; with Si-Ha (Cervix Si-Ha (Table 4)) it was 1580 nM. For the same compound, the GI50 in the assay on Colo-205 (Colon Colo-205 (Table 4)) turned out to be 1620 nM; with Colo-205 (colon (Colo205)), 1620 nM; with Zr-75-1 (Breast Zr-75-1 (Table 4)), 2140 nM; with MCF7 (Breast MCF7 (Table 4)) it was 1650 nM; with MCF7 (breast (MCF-7)), 1650 nM.

As to `COc1cc2c(cc1OCCCCn1c3ccccc3c3ccccc31)N=C[C@@H]1CCCN1C2=O` [Compound 6b, 7-Methoxy-8-[4-(9H-9-carbazoly)butoxy]-(11aS)-1,2,3,11a-tetrahydro-5H-pyrrolo[2,1-c][1,4]benzodiazepin-5-one], the GI50 stood at 1930 nM in the assay on HOP-62 (Lung HOP-62 (Table 4)); 1930 nM in the assay on HOP-62 (non small cell lung (HOPO62)); 1870 nM in the assay on KB (Oral KB (Table 4)); 1600 nM in the assay on GURAV (Oral GURAV (Table 4)); 1570 nM in the assay on A-2780; 1700 nM in the assay with Si-Ha (Cervix Si-Ha (Table 4)). The GI50 was determined as 1700 nM in the assay with Colo-205 (Colon Colo-205 (Table 4)); 1700 nM in the assay on Colo-205 (colon (Colo205)); 1810 nM in the assay on Zr-75-1 (Breast Zr-75-1 (Table 4)); 1810 nM with Zr-75-1 (breast (Zr-75-1)); 2210 nM in the assay with MCF7 (Breast MCF7 (Table 4)). In addition, the “ΔTm after incubation at 37 °C for 0 h” value in assay [1] was 4.3 °C. For the same compound, the “ΔTm after incubation at 37 °C for 18 h” value in [1] stood at 4.8 °C.

Turning to `COc1ccc(-c2ccc3c(c2)c2cc(-c4ccc(OC)cc4)ccc2n3CCCOc2cc3c(cc2OC)C(=O)N2CCC[C@H]2C=N3)cc1` [Compound 10d, 7-Methoxy-8-{3-[3,6-di(4-methoxyphenyl)-9H-9-carbazoly]propoxy}-(11aS)-1,2,3,11a-tetrahydro-5H-pyrrolo[2,1-c][1,4]-benzodiazepin-5-one], the GI50 turned out to be 110 nM in the assay on HOP-62 (Lung HOP-62 (Table 4)); 110 nM in the assay on HOP-62 (non small cell lung (HOPO62)); 2100 nM in the assay with A-549; 180 nM with KB (Oral KB (Table 4)); 150 nM with A-2780; 160 nM with PC-3 (Prostate PC-3 (Table 4)). For the same compound, the GI50 with Si-Ha (Cervix Si-Ha (Table 4)) came to 170 nM; in the assay with Colo-205 (Colon Colo-205 (Table 4)), 1700 nM; in the assay with Colo-205 (colon (Colo205)), 1700 nM; in the assay with MCF7 (Breast MCF7 (Table 4)), 130 nM; with MCF7 (breast (MCF-7)), 130 nM.

As for `COc1cc2c(cc1OCCCCN1CCN(CCCCn3c4ccccc4c4ccccc43)CC1)N=C[C@@H]1CCCN1C2=O` [Compound 14d, 7-Methoxy-8-(4-{-4-[4-(9H-9-carbazoly)butyloxy]piperazino}butyloxy)-(11aS)-1,2,3,11a-tetrahydro-5H-pyrrolo[2,1-c][1,4]benzodiazepin-5-one], the GI50 with HOP-62 (Lung HOP-62 (Table 4)) came to 1820 nM; in the assay on KB (Oral KB (Table 4)), 150 nM; in the assay with KB (oral (KB), text b39) it was 150 nM; in the assay on GURAV (Oral GURAV (Table 4)), 170 nM; with GURAV (oral (GURAV), text b39) it was 170 nM; in the assay with A-2780, 160 nM. Also, the GI50 in the assay with Si-Ha (Cervix Si-Ha (Table 4)) came to 170 nM; in the assay with Colo-205 (Colon Colo-205 (Table 4)), 160 nM; in the assay on Colo-205 (colon (Colo205)) it was 160 nM; with Zr-75-1 (Breast Zr-75-1 (Table 4)) it was 150 nM; in the assay with Zr-75-1 (breast (Zr-75-1)) it was 170 nM; with MCF7 (Breast MCF7 (Table 4)), 170 nM. This compound had a GI50 in the assay on MCF7 (breast (MCF-7)) of 150 nM. Besides, the “ΔTm after incubation at 37 °C for 0 h” value in [1] is 7.9 °C. Besides, the “ΔTm after incubation at 37 °C for 18 h” value in [1] is 8.4 °C.

As for `COc1ccc(-c2ccc3c(c2)c2cc(-c4ccc(OC)cc4)ccc2n3CCCCOc2cc3c(cc2OC)C(=O)N2CCC[C@H]2C=N3)cc1` [Compound 10e, 7-Methoxy-8-{4-[3,6-di(4-methoxyphenyl)-9H-9-carbazoly]butoxy}-(11aS)-1,2,3,11a-tetrahydro-5H-pyrrolo[2,1-c][1,4]-benzodiazepin-5-one], the GI50 in the assay on A-2780 came to 2000 nM; in the assay on PC-3 (Prostate PC-3 (Table 4)), 160 nM; with PC-3 (prostate (PC-3)), 160 nM; in the assay on Si-Ha (Cervix (Si-Ha)), 170 nM; with Si-Ha (Cervix Si-Ha (Table 4)), 170 nM; in the assay with Colo-205 (Colon Colo-205 (Table 4)) it was 2900 nM. Besides, the GI50 in the assay on MCF7 (Breast MCF7 (Table 4)) and in the assay with MCF7 (breast (MCF-7)) was 150 nM each time.

Turning to `COc1cc2c(cc1OCCCn1c3ccccc3c3ccccc31)N=C[C@@H]1CCCN1C2=O` [Compound 6a, 7-Methoxy-8-[3-(9H-9-carbazoly)propoxy]-(11aS)-1,2,3,11a-tetrahydro-5H-pyrrolo[2,1-c][1,4]-benzodiazepin-5-one], the GI50 in the assay on HOP-62 (Lung HOP-62 (Table 4)) was 1930 nM; with HOP-62 (non small cell lung (HOPO62)), 1930 nM; in the assay on KB (Oral KB (Table 4)), 1870 nM; with GURAV (Oral GURAV (Table 4)), 1600 nM; in the assay on A-2780 it was 1510 nM; in the assay on Si-Ha (Cervix Si-Ha (Table 4)), 1700 nM. Further, the GI50 in the assay on Colo-205 (Colon Colo-205 (Table 4)) was 1680 nM; in the assay on Colo-205 (colon (Colo205)) it was 1680 nM; in the assay with Zr-75-1 (Breast Zr-75-1 (Table 4)) it was 1890 nM; with MCF7 (Breast MCF7 (Table 4)) it was 1850 nM; in the assay with MCF7 (breast (MCF-7)), 1850 nM. In assay [1], the “ΔTm after incubation at 37 °C for 0 h” value stood at 4.2 °C. Moreover, the “ΔTm after incubation at 37 °C for 18 h” value in assay [1] was 5.1 °C.

In the case of `COc1cc2c(cc1OCCCN1CCN(CCCCn3c4ccccc4c4ccccc43)CC1)N=C[C@@H]1CCCN1C2=O` [Compound 14b, 7-Methoxy-8-(3-{4-[4-(9H-9-carbazoly)butyloxy]piperazino}propyloxy)-(11aS)-1,2,3,11a-tetrahydro-5H-pyrrolo[2,1-c][1,4]benzodiazepin-5-one], the GI50 with HOP-62 (Lung HOP-62 (Table 4)) amounted to 140 nM; with HOP-62 (non small cell lung (HOPO62)) it was 140 nM; with KB (Oral KB (Table 4)) it was 140 nM; in the assay with GURAV (Oral GURAV (Table 4)), 130 nM; in the assay with A-2780, 110 nM; with Si-Ha (Cervix Si-Ha (Table 4)), 130 nM. The GI50 with Colo-205 (Colon Colo-205 (Table 4)) worked out at 140 nM; in the assay with Colo-205 (colon (Colo205)), 140 nM; in the assay with Zr-75-1 (Breast Zr-75-1 (Table 4)), 150 nM; in the assay on Zr-75-1 (breast (Zr-75-1)), 150 nM; with MCF7 (Breast MCF7 (Table 4)) it was 150 nM; in the assay with MCF7 (breast (MCF-7)) it was 150 nM. Moreover, the “ΔTm after incubation at 37 °C for 0 h” value in [1] amounted to 7.8 °C. Moreover, the “ΔTm after incubation at 37 °C for 18 h” value in assay [1] was found to be 8.5 °C.

The values above are taken from US8927538B2, “Carbazole linked pyrrolo[2,1-c][1,4]benzodiazefine hybrids as potential anticancer agents and process for the preparation thereof” (Council of Scientific & Industrial Research, priority 2010, dated 2015).
